Test results reported in patent US6960568B2, “Nucleosides and related processes, pharmaceutical compositions and methods” (Yale University, priority 2002, dated 2005).

Assays:
[1] = tested on: L1210 leukemia cells; assay: Cytotoxicity against L1210 leukemia cell line in vitro; format: cell-based; settings: Mus musculus, drug concentration required to inhibit cancer cell replication by 50%, tested up to 100 μM
Method: (§1) The synthesized compounds were evaluated in vitro for their cytotoxicity against the L1210 and P388 leukemias, the CCRF-CEM lymphoblastic leukemia, and the B16F10 melanoma cell lines and the results are shown in Table 2.

[2] = tested on: P388 leukemia cells; assay: Cytotoxicity against P388 leukemia cell line in vitro; format: cell-based; settings: Mus musculus, drug concentration required to inhibit cancer cell replication by 50%, tested up to 100 μM
Method: as §1

[3] = tested on: CCRF-CEM lymphoblastic leukemia cells; assay: Cytotoxicity against CCRF-CEM lymphoblastic leukemia cell line in vitro; format: cell-based; settings: Homo sapiens, drug concentration required to inhibit cancer cell replication by 50%, tested up to 100 μM
Method: as §1

[4] = tested on: B16F10 melanoma cells; assay: Cytotoxicity against B16F10 melanoma cell line in vitro; format: cell-based; settings: Mus musculus, B16-F10; drug concentration required to inhibit cancer cell replication by 50%; tested up to 100 μM
Method: as §1

[5] = tested on: hepatitis B virus (HBV); assay: Antiviral assay against hepatitis B virus in vitro; format: cell-based; settings: maximum tested concentration 10 μM
Method: Antiviral assays were performed against hepatitis B virus (HBV) and human immunodeficiency virus (HIV-IIIB) in vitro as previously described. Lin, T. S.; Luo, M. Z.; Liu, M. C.; Pai, S. B.; Dutschman, G. E.; Cheng, Y. C., J. Med. Chem. 1994 37, 798-803.

[6] = tested on: L1210, P388, CCRF-CEM and B16F10 cells; assay: Cytotoxicity against the panel of neoplastic cell lines, summary in words; format: cell-based; settings: concentrations up to 100 μM
Method: as §1

Row | melting point | EC50 [5] [µM] | SMILES | IC50 [1] [µM] | IC50 [2] [µM] | IC50 [3] [µM] | IC50 [4] [µM] | activity against these neoplastic cell lines (in words) [6]
1 |  |  | CNc1nc(F)cc2c1ncn2[C@@H]1O[C@H](CO)[C@@H](O)[C@H]1O [Compound 39, 6-Fluoro-4-methylamino-1-(β-D-ribofuranosyl)imidazo[4,5-c]pyridine] | > 100 | > 100 | 100 | > 100 | 
2 | 169 °C (dec.) |  | Nc1ncc(Cl)c2c1ncn2[C@@H]1O[C@H](CO)[C@@H](O)[C@H]1O [Compound 52, 4-Amino-7-chloro-1-(β-D-ribofuranosyl)imidazo[4,5-c]pyridine] | > 100 | > 100 | > 100 | > 100 | 
3 | 166 to 168 °C |  | Nc1nc(F)c(Cl)c2ncn([C@@H]3O[C@H](CO)[C@@H](O)[C@H]3O)c12 [Compound 60, 4-Amino-7-chloro-6-fluoro-3-(β-D-ribofuranosyl)imidazo[4,5-c]pyridine] | > 100 | > 100 | > 100 | > 100 | 
4 | 198 °C (dec.) |  | Nc1nc(F)cc2c1ncn2[C@H]1O[C@H](CO)[C@@H](O)[C@@H]1O [Compound 44, 4-Amino-6-fluoro-1-α-D-arabinofuranosylimidazo[4,5-c]pyridine] | > 100 | > 100 | > 100 | > 100 | 
5 | 155 to 157 °C | ≥ 10 | Nc1nc(F)c(F)c2ncn([C@@H]3O[C@H](CO)[C@@H](O)[C@H]3O)c12 [Compound 58, 4-Amino-6,7-difluoro-3-(β-D-ribofuranosyl)imidazo[4,5-c]pyridine] | > 100 | > 100 | > 100 | > 100 | 
6 |  |  | Nc1[nH]c(=O)c2ncn([C@@H]3O[C@H](CO)[C@@H](O)[C@H]3O)c2c1Cl [Compound 61, 6-Amino-7-chloro-1,5-dihydro-1-β-D-ribofuranosylimidazo[4,5-c]pyridin-4-one] | 12 | 40 | 30 | 35 | 
7 |  | 9.2 | Nc1ncc(F)c2c1ncn2[C@@H]1O[C@H](CO)[C@@H](O)[C@H]1O [Compound 51, 4-Amino-7-fluoro-1-(β-D-ribofuranosyl)imidazo[4,5-c]pyridine] | 15 | 100 | 60 | 45 | moderate to weak activities
8 | 175 to 177 °C | 7.5 | Nc1nc(F)c(Cl)c2c1ncn2[C@@H]1O[C@H](CO)[C@@H](O)[C@H]1O [Compound 59, 4-Amino-7-chloro-6-fluoro-1-(β-D-ribofuranosyl)imidazo[4,5-c]pyridine] | 55 | 90 | 60 | 100 | moderate to weak activities
9 | 163 to 165 °C |  | Nc1nc(F)c(F)c2c1ncn2[C@@H]1O[C@H](CO)[C@@H](O)[C@H]1O [Compound 57, 4-Amino-6,7-difluoro-1-(β-D-ribofuranosyl)imidazo[4,5-c]pyridine] | 90 | 90 | 40 | 100 | moderate to weak activities
10 |  |  | Nc1[nH]c(=O)c2ncn([C@@H]3O[C@H](CO)[C@@H](O)[C@H]3O)c2c1Br [Compound 62, 6-Amino-7-bromo-1,5-dihydro-1-β-D-ribofuranosylimidazo[4,5-c]pyridin-4-one] | 3 | 7 | 9 | 7 | 
11 |  |  | Nc1nc(F)cc2c1ncn2[C@@H]1O[C@H](CO)[C@@H](O)[C@@H]1O [Compound 43, 4-Amino-6-fluoro-1-β-D-arabinofuranosylimidazo[4,5-c]pyridine] | > 100 | > 100 | > 100 | > 100 | 
12 |  |  | Nc1nc(F)cc2c1ncn2[C@@H]1O[C@H](CO)[C@@H](O)[C@H]1O [Compound 38, 4-Amino-6-fluoro-1-(β-D-ribofuranosyl)imidazo[4,5-c]pyridine] | 35 | 50 | 100 | 40 | moderate to weak activities
